Laboratory results taken from publication PMC6409085, “Three odorant-binding proteins are involved in the behavioral response of Sogatella furcifera to rice plant volatiles” (PeerJ, 2019).
“And” between values parts separate entries of the source, which are not always exact repeats. Equal entries are not always repeated.

Key:
S. furcifera adults = assay: Y-tube olfactometer behavioral trials; assay type: in vivo, Sogatella furcifera; conditions: odorant 50 µL/L vs hexane; adults
Experimental: To test the effect of the rice odorants on the behavior of S. furcifera adults, a glass Y-tube olfactometer (inner diameter 2.0 cm, stem 13 cm, arms 10 cm, angle of arms 60°) according to the previously described ([Wang et al., 2014b]) was employed. An airtight cubic box (70 by 45 by 30 cm) was used to position Y-tube, and the Y-tube was lighted by a 30-W filament lamp 25 cm above it. Air that filtered through activated charcoal and humidified with doubly distilled water was pumped in both arms at a flow rate of 300 mL/min. Two filter paper strips (10 by 1 cm) containing 100 µL odorant source (50 µL/L) and 100 µL control hexane were placed in two holding chambers in the front of the olfactometer, respectively. A S. furcifera adult (2 days after emergence, starved for 0.5 h) was randomly chosen and placed in the stem of the Y-tube. Each insect was given 10 min to choose between the two arms of the Y-tube, the choice was noted if the planthopper reached one-half of the arms’ lengths and stayed in the arm for more than 1 min. Besides, S. furcifera was considered as having no orientation preference. Forty-five individuals were used for each compound, each insect used only once. And the dual-choice experiment was done in an environmentally controlled room (25 ± 1 °C and 50% RH). A Chi-squared test was used to analyze the behavioral assay data by using SPSS19.0 (SPSS Inc., Chicago, IL, USA) software.

SfurOBP2 = SfurOBP2 (Sogatella furcifera, UniProt V5T759); assay: biochemical; assay type: binding
In short: (§1)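 K1-NPN came from titrating 2.0 µM protein (50 mM Tris-HCl, pH 7.4) with 1-NPN. Odorants at 2-20 µM then competed against 2.0 µM protein plus 2.0 µM 1-NPN for 2 min, with excitation at 337 nm and emission recorded over 390-490 nm. IC50 values were converted to Ki via Ki = IC50/(1 + [1-NPN]/K1-NPN).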

SfurOBP1 = SfurOBP1 (Sogatella furcifera, UniProt V5T8N5); assay: biochemical; assay type: binding; conditions: for Fluorescence competitive binding assay, fluorescence intensity: OBP1, three replicate columns
In short: as §1

SfurOBP3 = SfurOBP3 (Sogatella furcifera, UniProt V5T818); assay: biochemical; assay type: binding; conditions: for Fluorescence competitive binding assay, fluorescence intensity: OBP3, three replicate columns
In short: as §1

SfurOBP11 = SfurOBP11 (Sogatella furcifera, UniProt V5T6E3); assay: biochemical; assay type: binding
In short: as §1

Chain of SfurOBP1 (V5T8N5 entry or part of it): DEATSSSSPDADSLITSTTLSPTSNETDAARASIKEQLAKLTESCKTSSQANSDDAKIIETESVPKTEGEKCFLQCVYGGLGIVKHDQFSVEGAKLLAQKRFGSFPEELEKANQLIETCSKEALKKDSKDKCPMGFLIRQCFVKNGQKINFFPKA
Chain of SfurOBP2 (V5T759 entry or part of it): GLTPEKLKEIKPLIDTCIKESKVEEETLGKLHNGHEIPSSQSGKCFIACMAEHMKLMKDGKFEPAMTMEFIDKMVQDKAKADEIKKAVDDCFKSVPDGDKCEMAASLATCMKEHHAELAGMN
Chain of SfurOBP3 (V5T818 entry or part of it): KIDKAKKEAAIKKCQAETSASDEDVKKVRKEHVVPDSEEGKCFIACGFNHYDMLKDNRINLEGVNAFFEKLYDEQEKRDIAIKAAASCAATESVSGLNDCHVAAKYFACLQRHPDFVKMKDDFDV
Chain of SfurOBP11 (V5T6E3 entry or part of it): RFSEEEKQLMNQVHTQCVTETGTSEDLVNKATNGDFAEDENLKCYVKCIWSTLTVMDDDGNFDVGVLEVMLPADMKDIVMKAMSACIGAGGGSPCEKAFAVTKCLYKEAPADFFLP

2-heptanonol
number of insects choosing hexane arm (S. furcifera adults): 13 | number of insects choosing volatilies arm (S. furcifera adults): 16 | number of insects failed (no choice) (S. furcifera adults): 13 | IC50 (SfurOBP2; SfurOBP2, protein and 1-NPN both 2.0 µM, competitor 2-20 µM, read-out: IC50): > 20 µM | Fluorescence competitive binding assay, OBP2 (raw fluorescence reading) (SfurOBP2; ligand concentration 2 (unit not given), replicate column 1 of 3): 18612 | Fluorescence competitive binding assay, OBP2 (raw fluorescence reading) (SfurOBP2; ligand concentration 2 (unit not given), replicate column 2 of 3): 18747 | Fluorescence competitive binding assay, OBP2 (raw fluorescence reading) (SfurOBP2; ligand concentration 2 (unit not given), replicate column 3 of 3): 19681 | Fluorescence competitive binding assay, OBP2 (raw fluorescence reading) (SfurOBP2; ligand concentration 4 (unit not given), replicate column 1 of 3): 19302 | Fluorescence competitive binding assay, OBP2 (raw fluorescence reading) (SfurOBP2; ligand concentration 4 (unit not given), replicate column 2 of 3): 19993 | Fluorescence competitive binding assay, OBP2 (raw fluorescence reading) (SfurOBP2; ligand concentration 4 (unit not given), replicate column 3 of 3): 20683 | Fluorescence competitive binding assay, OBP2 (raw fluorescence reading) (SfurOBP2; ligand concentration 6 (unit not given), replicate column 1 of 3): 18811 | Fluorescence competitive binding assay, OBP2 (raw fluorescence reading) (SfurOBP2; ligand concentration 6 (unit not given), replicate column 2 of 3): 18736 | Fluorescence competitive binding assay, OBP2 (raw fluorescence reading) (SfurOBP2; ligand concentration 6 (unit not given), replicate column 3 of 3): 18774 | Fluorescence competitive binding assay, OBP2 (raw fluorescence reading) (SfurOBP2; ligand concentration 8 (unit not given), replicate column 1 of 3): 16468 | Fluorescence competitive binding assay, OBP2 (raw fluorescence reading) (SfurOBP2; ligand concentration 8 (unit not given), replicate column 2 of 3): 16720 | Fluorescence competitive binding assay, OBP2 (raw fluorescence reading) (SfurOBP2; ligand concentration 8 (unit not given), replicate column 3 of 3): 16981 | Fluorescence competitive binding assay, OBP2 (raw fluorescence reading) (SfurOBP2; ligand concentration 10 (unit not given), replicate column 1 of 3): 16986 | Fluorescence competitive binding assay, OBP2 (raw fluorescence reading) (SfurOBP2; ligand concentration 10 (unit not given), replicate column 2 of 3): 17111 | Fluorescence competitive binding assay, OBP2 (raw fluorescence reading) (SfurOBP2; ligand concentration 10 (unit not given), replicate column 3 of 3): 16240 | Fluorescence competitive binding assay, OBP2 (raw fluorescence reading) (SfurOBP2; ligand concentration 12 (unit not given), replicate column 1 of 3): 16820 | Fluorescence competitive binding assay, OBP2 (raw fluorescence reading) (SfurOBP2; ligand concentration 12 (unit not given), replicate column 2 of 3): 17596 | Fluorescence competitive binding assay, OBP2 (raw fluorescence reading) (SfurOBP2; ligand concentration 12 (unit not given), replicate column 3 of 3): 18083 | Fluorescence competitive binding assay, OBP2 (raw fluorescence reading) (SfurOBP2; ligand concentration 14 (unit not given), replicate column 1 of 3): 17387 | Fluorescence competitive binding assay, OBP2 (raw fluorescence reading) (SfurOBP2; ligand concentration 14 (unit not given), replicate column 2 of 3): 16676 | Fluorescence competitive binding assay, OBP2 (raw fluorescence reading) (SfurOBP2; ligand concentration 14 (unit not given), replicate column 3 of 3): 18097 | Fluorescence competitive binding assay, OBP2 (raw fluorescence reading) (SfurOBP2; ligand concentration 16 (unit not given), replicate column 1 of 3): 16472 | Fluorescence competitive binding assay, OBP2 (raw fluorescence reading) (SfurOBP2; ligand concentration 16 (unit not given), replicate column 2 of 3): 16454 | Fluorescence competitive binding assay, OBP2 (raw fluorescence reading) (SfurOBP2; ligand concentration 16 (unit not given), replicate column 3 of 3): 17500 | Fluorescence competitive binding assay, OBP2 (raw fluorescence reading) (SfurOBP2; ligand concentration 18 (unit not given), replicate column 1 of 3): 16574 | Fluorescence competitive binding assay, OBP2 (raw fluorescence reading) (SfurOBP2; ligand concentration 18 (unit not given), replicate column 2 of 3): 16302 | Fluorescence competitive binding assay, OBP2 (raw fluorescence reading) (SfurOBP2; ligand concentration 18 (unit not given), replicate column 3 of 3): 16787 | Fluorescence competitive binding assay, OBP2 (raw fluorescence reading) (SfurOBP2; ligand concentration 20 (unit not given), replicate column 1 of 3): 15630 | Fluorescence competitive binding assay, OBP2 (raw fluorescence reading) (SfurOBP2; ligand concentration 20 (unit not given), replicate column 2 of 3): 15665 | Fluorescence competitive binding assay, OBP2 (raw fluorescence reading) (SfurOBP2; ligand concentration 20 (unit not given), replicate column 3 of 3): 15648 | Fluorescence competitive binding assay, fluorescence intensity (SfurOBP1; ligand concentration 2 (μM)): 5887 and 5646 and 5767 | Fluorescence competitive binding assay, fluorescence intensity (SfurOBP1; ligand concentration 4 (μM)): 7288 and 7577 and 6996 | Fluorescence competitive binding assay, fluorescence intensity (SfurOBP1; ligand concentration 6 (μM)): 5995 and 5950 and 6027 | Fluorescence competitive binding assay, fluorescence intensity (SfurOBP1; ligand concentration 8 (μM)): 7072 and 6140 and 5704 | Fluorescence competitive binding assay, fluorescence intensity (SfurOBP1; ligand concentration 10 (μM)): 8690 and 6215 and 5653 | Fluorescence competitive binding assay, fluorescence intensity (SfurOBP1; ligand concentration 12 (μM)): 7048 and 7677 and 6537 | Fluorescence competitive binding assay, fluorescence intensity (SfurOBP1; ligand concentration 14 (μM)): 6232 and 8602 and 7115 | Fluorescence competitive binding assay, fluorescence intensity (SfurOBP1; ligand concentration 16 (μM)): 5533 and 5298 and 5778 | Fluorescence competitive binding assay, fluorescence intensity (SfurOBP1; ligand concentration 18 (μM)): 5895 and 6061 and 6136 | Fluorescence competitive binding assay, fluorescence intensity (SfurOBP1; ligand concentration 20 (μM)): 5784 and 5580 and 5212 | IC50 (SfurOBP1; SfurOBP1, protein and 1-NPN both 2.0 µM, competitor 2-20 µM, read-out: IC50): > 20 µM | Fluorescence competitive binding assay, fluorescence intensity (SfurOBP3; ligand concentration 2): 45232 and 45869 and 44594 | Fluorescence competitive binding assay, fluorescence intensity (SfurOBP3; ligand concentration 4): 45996 and 44453 and 43020 | Fluorescence competitive binding assay, fluorescence intensity (SfurOBP3; ligand concentration 6): 47391 and 47743 and 47567 | Fluorescence competitive binding assay, fluorescence intensity (SfurOBP3; ligand concentration 8): 48801 and 50407 and 49604 | Fluorescence competitive binding assay, fluorescence intensity (SfurOBP3; ligand concentration 10): 51610 and 62768 and 47878 | Fluorescence competitive binding assay, fluorescence intensity (SfurOBP3; ligand concentration 12): 54498 and 52011 and 51877 | Fluorescence competitive binding assay, fluorescence intensity (SfurOBP3; ligand concentration 14): 42842 (2×) and 42142 | Fluorescence competitive binding assay, fluorescence intensity (SfurOBP3; ligand concentration 16): 41166 and 44357 and 42754 | Fluorescence competitive binding assay, fluorescence intensity (SfurOBP3; ligand concentration 18): 42621 and 43724 and 41536 | Fluorescence competitive binding assay, fluorescence intensity (SfurOBP3; ligand concentration 20): 45786 and 37456 and 39383 | IC50 (SfurOBP3; SfurOBP3, protein and 1-NPN both 2.0 µM, competitor 2-20 µM, read-out: IC50): > 20 µM | IC50 (SfurOBP11; SfurOBP11, protein and 1-NPN both 2.0 µM, competitor 2-20 µM, read-out: IC50): > 20 µM | Fluorescence intensity, fluorescence competitive binding assay, OBP11 (SfurOBP11; ligand concentration 2, replicate 1): 32214 | Fluorescence intensity, fluorescence competitive binding assay, OBP11 (SfurOBP11; ligand concentration 2, replicate 2): 33277 | Fluorescence intensity, fluorescence competitive binding assay, OBP11 (SfurOBP11; ligand concentration 2, replicate 3): 35354 | Fluorescence intensity, fluorescence competitive binding assay, OBP11 (SfurOBP11; ligand concentration 4, replicate 1): 33125 | Fluorescence intensity, fluorescence competitive binding assay, OBP11 (SfurOBP11; ligand concentration 4, replicate 2): 35054 | Fluorescence intensity, fluorescence competitive binding assay, OBP11 (SfurOBP11; ligand concentration 4, replicate 3): 33696 | Fluorescence intensity, fluorescence competitive binding assay, OBP11 (SfurOBP11; ligand concentration 6, replicate 1): 31772 | Fluorescence intensity, fluorescence competitive binding assay, OBP11 (SfurOBP11; ligand concentration 6, replicate 2): 31091 | Fluorescence intensity, fluorescence competitive binding assay, OBP11 (SfurOBP11; ligand concentration 6, replicate 3): 33532 | Fluorescence intensity, fluorescence competitive binding assay, OBP11 (SfurOBP11; ligand concentration 8, replicate 1): 28812 | Fluorescence intensity, fluorescence competitive binding assay, OBP11 (SfurOBP11; ligand concentration 8, replicate 2): 31104 | Fluorescence intensity, fluorescence competitive binding assay, OBP11 (SfurOBP11; ligand concentration 8, replicate 3): 31825 | Fluorescence intensity, fluorescence competitive binding assay, OBP11 (SfurOBP11; ligand concentration 10, replicate 1): 28521 | Fluorescence intensity, fluorescence competitive binding assay, OBP11 (SfurOBP11; ligand concentration 10, replicate 2): 30054 | Fluorescence intensity, fluorescence competitive binding assay, OBP11 (SfurOBP11; ligand concentration 10, replicate 3): 29747 | Fluorescence intensity, fluorescence competitive binding assay, OBP11 (SfurOBP11; ligand concentration 12, replicate 1): 26176 | Fluorescence intensity, fluorescence competitive binding assay, OBP11 (SfurOBP11; ligand concentration 12, replicate 2): 26507 | Fluorescence intensity, fluorescence competitive binding assay, OBP11 (SfurOBP11; ligand concentration 12, replicate 3): 26325 | Fluorescence intensity, fluorescence competitive binding assay, OBP11 (SfurOBP11; ligand concentration 14, replicate 1): 24809 | Fluorescence intensity, fluorescence competitive binding assay, OBP11 (SfurOBP11; ligand concentration 14, replicate 2): 27546 | Fluorescence intensity, fluorescence competitive binding assay, OBP11 (SfurOBP11; ligand concentration 14, replicate 3): 28489 | Fluorescence intensity, fluorescence competitive binding assay, OBP11 (SfurOBP11; ligand concentration 16, replicate 1): 22169 | Fluorescence intensity, fluorescence competitive binding assay, OBP11 (SfurOBP11; ligand concentration 16, replicate 2): 21457 | Fluorescence intensity, fluorescence competitive binding assay, OBP11 (SfurOBP11; ligand concentration 16, replicate 3): 24839 | Fluorescence intensity, fluorescence competitive binding assay, OBP11 (SfurOBP11; ligand concentration 18, replicate 1): 29523 | Fluorescence intensity, fluorescence competitive binding assay, OBP11 (SfurOBP11; ligand concentration 18, replicate 2): 28673 | Fluorescence intensity, fluorescence competitive binding assay, OBP11 (SfurOBP11; ligand concentration 18, replicate 3): 27420 | Fluorescence intensity, fluorescence competitive binding assay, OBP11 (SfurOBP11; ligand concentration 20, replicate 1): 25385 | Fluorescence intensity, fluorescence competitive binding assay, OBP11 (SfurOBP11; ligand concentration 20, replicate 2): 25884 | Fluorescence intensity, fluorescence competitive binding assay, OBP11 (SfurOBP11; ligand concentration 20, replicate 3): 25605
